In brackets after ≈: the same amount, converted by molar mass.
Legend:
Candida tropicalis = assay: Antifungal activity against Candida tropicalis ATCC 750 after 24 to 48 hrs by broth microdilution method; format: functional
Escherichia coli = assay: Antibacterial activity against Escherichia coli ATCC 25922 after 24 hrs by broth microdilution method; format: functional; details: ATCC 25922, 24 h
Pichia kudriavzevii [1] = assay: Antifungal activity against Candida krusei ATCC 6258 after 24 to 48 hrs by broth microdilution method; format: functional
Candida parapsilosis = assay: Antifungal activity against Candida parapsilosis ATCC 22019 after 24 to 48 hrs by broth microdilution method; format: functional; details: Lodderomyces parapsilosis
Staphylococcus aureus = assay: Antibacterial activity against Staphylococcus aureus ATCC 29213 after 24 hrs by broth microdilution method; format: functional; details: ATCC 29213, 24 h
Enterococcus faecalis = assay: Antibacterial activity against Enterococcus faecalis ATCC 29212 after 24 hrs by broth microdilution method; format: functional; details: ATCC 29212, 24 h
Candida albicans = assay: Antifungal activity against Candida albicans ATCC 10231 after 24 to 48 hrs by broth microdilution method; format: functional
Pichia kudriavzevii [2] = assay: Ratio of fluconazole MIC to compound MIC for Candida krusei ATCC 6258; format: functional
THP-1 [3] = assay: Cytotoxicity against human THP1 cells assessed as release of lactate dehydrogenase at 4 times MIC after 24 hrs; format: cell-based; details: thp-1, 24 h
THP-1 [4] = assay: Cytotoxicity against human THP1 cells at 4 times MIC after 24 hrs by trypan blue exclusion assay; format: cell-based; details: thp-1, 24 h
THP-1 [5] = assay: Cytotoxicity against human THP1 cells assessed as release of lactate dehydrogenase at 10 times MIC after 24 hrs; format: cell-based; details: thp-1, 24 h

Structure (SMILES) | MIC (Candida tropicalis) [µg/mL] | MIC (Escherichia coli) [µg/mL] | MIC (Pichia kudriavzevii [1]) [µg/mL] | MIC (Candida parapsilosis) [µg/mL] | MIC (Staphylococcus aureus) [µg/mL] | MIC (Enterococcus faecalis) [µg/mL] | MIC (Candida albicans) [µg/mL] | Ratio (Pichia kudriavzevii [2]) | Activity (THP-1 [3]) | Activity (THP-1 [4]) | Activity (THP-1 [5])
Nc1nc2ccc(Oc3ccccc3)cc2s1 | 32 (≈ 132 µM) | > 512 | 32 (≈ 132 µM) | 16 (≈ 66 µM) | > 512 | > 512 | 128 (≈ 528 µM) |  |  |  | 
Nc1nc2ccc(C(F)(F)F)cc2s1 | 64 (≈ 293 µM) | > 512 | 64 (≈ 293 µM) | 64 (≈ 293 µM) | 256 (≈ 1170 µM) | 256 (≈ 1170 µM) | 16 (≈ 73.3 µM) |  |  |  | 
Nc1nc2ccc(COc3ccccc3)cc2s1 | 16 (≈ 62.4 µM) | > 512 | 64 (≈ 250 µM) | 16 (≈ 62.4 µM) | 256 (≈ 999 µM) | 128 (≈ 499 µM) | 32 (≈ 125 µM) |  |  |  | 
Nc1nc2ccc(OCc3ccccc3)cc2s1 | 8 (≈ 31.2 µM) | > 512 | 64 (≈ 250 µM) | 8 (≈ 31.2 µM) | > 512 | > 512 | 8 (≈ 31.2 µM) |  |  |  | 
CCn1cc(C(=O)O)c(=O)c2cc(F)c(N3CCNCC3)cc21 [NORFLOXACIN] |  | 0.03 (≈ 0.0939 µM) |  |  | 0.5 (≈ 1.57 µM) | 4 (≈ 12.5 µM) |  |  |  |  | 
Nc1nc2ccc(OCCCc3ccccc3)cc2s1 | 16 (≈ 56.3 µM) | > 512 | 16 (≈ 56.3 µM) | 16 (≈ 56.3 µM) | 512 (≈ 1800 µM) | 128 (≈ 450 µM) | 32 (≈ 113 µM) | 2 |  |  | 
Nc1nc2ccc(OC(F)(F)F)cc2s1 [RILUZOLE] | 128 (≈ 547 µM) | 512 (≈ 2190 µM) | 128 (≈ 547 µM) | 64 (≈ 273 µM) | 256 (≈ 1090 µM) | 512 (≈ 2190 µM) | 64 (≈ 273 µM) |  |  |  | 
COc1ccc2nc(N)sc2c1 | 256 (≈ 1420 µM) | > 512 | 512 (≈ 2840 µM) | 256 (≈ 1420 µM) | 128 (≈ 710 µM) | 128 (≈ 710 µM) | 256 (≈ 1420 µM) |  |  |  | 
Nc1nc2ccc(OCCc3ccccc3)cc2s1 | 32 (≈ 118 µM) | > 512 | 16 (≈ 59.2 µM) | 16 (≈ 59.2 µM) | > 512 | 128 (≈ 473 µM) | 8 (≈ 29.6 µM) | 2 |  |  | 
Nc1nc2ccc(OCc3ccc(Cl)cc3)cc2s1 | 4 (≈ 13.8 µM) | > 512 | 64 (≈ 220 µM) | 8 (≈ 27.5 µM) | 256 (≈ 880 µM) | 256 (≈ 880 µM) | 4 (≈ 13.8 µM) |  | Toxic | Toxic | 
OC(Cn1cncn1)(Cn1cncn1)c1ccc(F)cc1F [FLUCONAZOLE] | 4 (≈ 13.1 µM) |  | 32 (≈ 104 µM) | 2 (≈ 6.53 µM) |  |  | 2 (≈ 6.53 µM) |  |  |  | 
Nc1nc2ccc(OCCCCc3ccccc3)cc2s1 | 512 (≈ 1720 µM) | > 512 | > 512 | 128 (≈ 429 µM) | 512 (≈ 1720 µM) | 256 (≈ 858 µM) | 512 (≈ 1720 µM) |  |  |  | 
CCOc1ccc2nc(N)sc2c1 | 128 (≈ 659 µM) | > 512 | 256 (≈ 1320 µM) | 128 (≈ 659 µM) | 512 (≈ 2640 µM) | 512 (≈ 2640 µM) | 128 (≈ 659 µM) |  |  |  | 
Nc1nc2ccc(Oc3ccc(Cl)cc3)cc2s1 | 8 (≈ 28.9 µM) | > 512 | 32 (≈ 116 µM) | 4 (≈ 14.5 µM) | 512 (≈ 1850 µM) | 512 (≈ 1850 µM) | 8 (≈ 28.9 µM) |  |  |  | Non-toxic
